Reference: the NIST ThermoML archive (doi:10.1021/je0256028)
± gives the expanded uncertainty stated by the source.

Key:
[1] = 298.15 K; for mass density: 101.33 kPa, Vibrating tube method; for surface tension liquid-gas: Pendant drop shape
[2] = xn = mol fraction of the nth substance listed; settings: 298.15 K, Pendant drop shape

## Cc1ccccc1C [1,2-dimethylbenzene]
[1]; Liquid
  mass density: 875.92 ± 0.11 kg/m3
  surface tension liquid-gas: 29.6 ± 0.4 mN/m

## Cc1ccccc1C [1,2-dimethylbenzene] + CC(C)(C)O
[2]; x2 = 0
  surface tension liquid-gas: 29.6 ± 0.4 mN/m
[2]; x2 = 0.1083
  surface tension liquid-gas: 27.8 ± 0.38 mN/m
[2]; x2 = 0.1992
  surface tension liquid-gas: 26.43 ± 0.36 mN/m
[2]; x2 = 0.3042
  surface tension liquid-gas: 25.27 ± 0.35 mN/m
[2]; x2 = 0.402
  surface tension liquid-gas: 24.32 ± 0.34 mN/m
[2]; x2 = 0.5007
  surface tension liquid-gas: 23.6 ± 0.34 mN/m
[2]; x2 = 0.5988
  surface tension liquid-gas: 22.82 ± 0.33 mN/m
[2]; x2 = 0.6992
  surface tension liquid-gas: 22.05 ± 0.32 mN/m
[2]; x2 = 0.8
  surface tension liquid-gas: 21.38 ± 0.31 mN/m
[2]; x2 = 0.8991
  surface tension liquid-gas: 20.71 ± 0.31 mN/m

## Cc1ccccc1C [1,2-dimethylbenzene] + CC(C)O
[2]; x2 = 0
  surface tension liquid-gas: 29.6 ± 0.4 mN/m
[2]; x2 = 0.0992
  surface tension liquid-gas: 28.21 ± 0.38 mN/m
[2]; x2 = 0.1988
  surface tension liquid-gas: 27.11 ± 0.37 mN/m
[2]; x2 = 0.3024
  surface tension liquid-gas: 26.07 ± 0.36 mN/m
[2]; x2 = 0.4004
  surface tension liquid-gas: 25.3 ± 0.35 mN/m
[2]; x2 = 0.4979
  surface tension liquid-gas: 24.54 ± 0.35 mN/m
[2]; x2 = 0.5971
  surface tension liquid-gas: 23.98 ± 0.34 mN/m
[2]; x2 = 0.6988
  surface tension liquid-gas: 23.15 ± 0.33 mN/m
[2]; x2 = 0.8
  surface tension liquid-gas: 22.4 ± 0.32 mN/m
[2]; x2 = 0.8896
  surface tension liquid-gas: 21.72 ± 0.32 mN/m

## Cc1cccc(C)c1 [1,3-dimethylbenzene]
[1]; Liquid
  mass density: 859.79 ± 0.16 kg/m3
  surface tension liquid-gas: 28.36 ± 0.39 mN/m

## Cc1cccc(C)c1 [1,3-dimethylbenzene] + CC(C)(C)O
[2]; x2 = 0
  surface tension liquid-gas: 28.36 ± 0.39 mN/m
[2]; x2 = 0.1028
  surface tension liquid-gas: 26.83 ± 0.37 mN/m
[2]; x2 = 0.201
  surface tension liquid-gas: 25.76 ± 0.36 mN/m
[2]; x2 = 0.3006
  surface tension liquid-gas: 24.84 ± 0.35 mN/m
[2]; x2 = 0.4009
  surface tension liquid-gas: 23.98 ± 0.34 mN/m
[2]; x2 = 0.4999
  surface tension liquid-gas: 23.21 ± 0.33 mN/m
[2]; x2 = 0.5994
  surface tension liquid-gas: 22.52 ± 0.33 mN/m
[2]; x2 = 0.6984
  surface tension liquid-gas: 21.84 ± 0.32 mN/m
[2]; x2 = 0.7981
  surface tension liquid-gas: 21.22 ± 0.31 mN/m
[2]; x2 = 0.895
  surface tension liquid-gas: 20.64 ± 0.31 mN/m

## Cc1cccc(C)c1 [1,3-dimethylbenzene] + CC(C)O
[2]; x2 = 0
  surface tension liquid-gas: 28.36 ± 0.39 mN/m
[2]; x2 = 0.1019
  surface tension liquid-gas: 27.15 ± 0.38 mN/m
[2]; x2 = 0.1933
  surface tension liquid-gas: 26.23 ± 0.37 mN/m
[2]; x2 = 0.2999
  surface tension liquid-gas: 25.4 ± 0.36 mN/m
[2]; x2 = 0.4024
  surface tension liquid-gas: 24.76 ± 0.35 mN/m
[2]; x2 = 0.4983
  surface tension liquid-gas: 24.18 ± 0.34 mN/m
[2]; x2 = 0.5957
  surface tension liquid-gas: 23.56 ± 0.34 mN/m
[2]; x2 = 0.7013
  surface tension liquid-gas: 22.87 ± 0.33 mN/m
[2]; x2 = 0.7952
  surface tension liquid-gas: 22.26 ± 0.32 mN/m
[2]; x2 = 0.8987
  surface tension liquid-gas: 21.58 ± 0.32 mN/m

## Cc1ccc(C)cc1 [1,4-dimethylbenzene]
[1]; Liquid
  mass density: 856.85 ± 0.12 kg/m3
  surface tension liquid-gas: 27.89 ± 0.38 mN/m

## Cc1ccc(C)cc1 [1,4-dimethylbenzene] + CC(C)(C)O
[2]; x2 = 0
  surface tension liquid-gas: 27.89 ± 0.38 mN/m
[2]; x2 = 0.1004
  surface tension liquid-gas: 26.69 ± 0.37 mN/m
[2]; x2 = 0.2113
  surface tension liquid-gas: 25.63 ± 0.36 mN/m
[2]; x2 = 0.3049
  surface tension liquid-gas: 24.73 ± 0.35 mN/m
[2]; x2 = 0.4065
  surface tension liquid-gas: 23.9 ± 0.34 mN/m
[2]; x2 = 0.498
  surface tension liquid-gas: 23.25 ± 0.33 mN/m
[2]; x2 = 0.6012
  surface tension liquid-gas: 22.5 ± 0.33 mN/m
[2]; x2 = 0.698
  surface tension liquid-gas: 21.82 ± 0.32 mN/m
[2]; x2 = 0.8007
  surface tension liquid-gas: 21.15 ± 0.31 mN/m
[2]; x2 = 0.9002
  surface tension liquid-gas: 20.58 ± 0.31 mN/m

## Cc1ccc(C)cc1 [1,4-dimethylbenzene] + CC(C)O
[2]; x2 = 0
  surface tension liquid-gas: 27.89 ± 0.38 mN/m
[2]; x2 = 0.1029
  surface tension liquid-gas: 26.82 ± 0.37 mN/m
[2]; x2 = 0.2014
  surface tension liquid-gas: 26.03 ± 0.36 mN/m
[2]; x2 = 0.2993
  surface tension liquid-gas: 25.32 ± 0.35 mN/m
[2]; x2 = 0.403
  surface tension liquid-gas: 24.63 ± 0.35 mN/m
[2]; x2 = 0.4979
  surface tension liquid-gas: 24.06 ± 0.34 mN/m
[2]; x2 = 0.5985
  surface tension liquid-gas: 23.45 ± 0.33 mN/m
[2]; x2 = 0.6991
  surface tension liquid-gas: 22.86 ± 0.33 mN/m
[2]; x2 = 0.7982
  surface tension liquid-gas: 22.22 ± 0.32 mN/m
[2]; x2 = 0.9047
  surface tension liquid-gas: 21.52 ± 0.32 mN/m

## CC(C)(C)O [2-methylpropan-2-ol]
[1]; Liquid
  mass density: 780.27 ± 0.16 kg/m3
[1]; Metastable liquid
  surface tension liquid-gas: 19.97 ± 0.3 mN/m

## CC(C)(C)O [2-methylpropan-2-ol] + Cc1ccc(C)cc1
[2]; x1 = 1
  surface tension liquid-gas: 19.97 ± 0.3 mN/m

## CC(C)(C)O [2-methylpropan-2-ol] + Cc1cccc(C)c1
[2]; x1 = 1
  surface tension liquid-gas: 19.97 ± 0.3 mN/m

## CC(C)(C)O [2-methylpropan-2-ol] + Cc1ccccc1C
[2]; x1 = 1
  surface tension liquid-gas: 19.97 ± 0.3 mN/m

## CC(C)O [propan-2-ol]
[1]; Liquid
  mass density: 780.85 ± 0.16 kg/m3
  surface tension liquid-gas: 20.93 ± 0.31 mN/m

## CC(C)O [propan-2-ol] + Cc1ccc(C)cc1
[2]; x1 = 1
  surface tension liquid-gas: 20.93 ± 0.31 mN/m

## CC(C)O [propan-2-ol] + Cc1cccc(C)c1
[2]; x1 = 1
  surface tension liquid-gas: 20.93 ± 0.31 mN/m

## CC(C)O [propan-2-ol] + Cc1ccccc1C
[2]; x1 = 1
  surface tension liquid-gas: 20.93 ± 0.31 mN/m
